Assay: Reversal of MRP1-mediated doxorubicin-resistance in human HeLa-T5 cells assessed as reduction of doxorubicin IC50 percent by half

An EC50 of 93 nM was found for `Cc1onc2c1c(=O)n([C@H]1CCC[C@@H](CNC(=O)c3ccccc3)C1)c1cccc(Cl)c21` (racemic) [N-(((1R,3S)-3-(9-chloro-3-methyl-4-oxoisoxazolo[4,3-c]quinolin-5(4H)-yl)cyclohexyl)methyl)benzamide] in this work.

Reference: BindingDB's records for doi:10.1021/jm900194w (The Hong Kong Polytechnic University, 2009)
